Consider 28 molecules from ChEMBL document CHEMBL3044985, “Novel antitubercular diallyl/dibenzylthiosemicarbazones endowed with high activity toward multi-drug-resistant tuberculosis” (Med Chem Res, 2012).

Data set [1] concerns Mycobacterium tuberculosis. In words: Antitubercular activity against multidrug-resistant Mycobacterium tuberculosis by NCCLS agar dilution method. Format: functional. A general note: In agar dilution, organisms are placed on agar that contains the substance at set levels.
The subject of data set [2] is Mycobacterium tuberculosis. In words: Ratio of ofloxacin MIC to compound MIC for multidrug-resistant Mycobacterium tuberculosis. The class given is functional.
A short description of data set [3]: Selectivity index, ratio of CC50 for african green monkey Vero cells to MIC for multidrug-resistant Mycobacterium tuberculosis. The class given is toxicity, cell-based. The following applies: read-out: Selectivity Index.
Data set [4] has as its system Mycobacterium tuberculosis. The experiment in a line: Ratio of ethambutol MIC to compound MIC for multidrug-resistant Mycobacterium tuberculosis. The class given is functional.
In data set [5] the test system is Mycobacterium tuberculosis. In words: Ratio of rifampicin MIC to compound MIC for multidrug-resistant Mycobacterium tuberculosis. Format: functional.
Data set [6] has as its system Mycobacterium tuberculosis. In words: Ratio of isoniazid MIC to compound MIC for multidrug-resistant Mycobacterium tuberculosis. The class given is functional.

Values after ≈ are worked out from the molar mass of the structure shown.

Broadly, the MIC is the lowest concentration that inhibits growth of the organism. `S=C(NN=C(c1ccccc1)c1ccccc1)N(Cc1ccccc1)Cc1ccccc1` displayed an MIC in data set [1] of 1.79 µM (≈ 0.78 µg/mL).
`O=[N+]([O-])c1ccc(/C=N\NC(=S)N(Cc2ccccc2)Cc2ccccc2)cc1` displayed an MIC in data set [1] of 0.98 µM (≈ 0.396 µg/mL).
As to `C=CCN(CC=C)C(=S)N/N=C\c1ccc(Cl)cc1`, the MIC in data set [1] came to 2.65 µM (≈ 0.779 µg/mL).
The same measure, in the same setting: to `S=C(N/N=C\c1ccc(Cl)cc1)N(Cc1ccccc1)Cc1ccccc1` belongs 1.98 µM (≈ 0.78 µg/mL); to `C=CCN(CC=C)C(=S)N/N=C\c1ccccc1C`, 5.7 µM (≈ 1.56 µg/mL).
Turning to `Cc1ccccc1/C=N\NC(=S)N(Cc1ccccc1)Cc1ccccc1`, 4.71 µM (≈ 1.76 µg/mL) was the least that counted as inhibitory in data set [1] (MIC).
On to `Oc1ccccc1/C=N\NC(=S)N(Cc1ccccc1)Cc1ccccc1`, for which, in data set [1], 4.16 µM (≈ 1.56 µg/mL) was the least that counted as inhibitory (MIC).
In data set [1], `C=CCN(CC=C)C(=S)N/N=C\c1ccc([N+](=O)[O-])o1` showed an MIC of 0.67 µM (≈ 0.197 µg/mL).
For `O=[N+]([O-])c1ccc(/C=N\NC(=S)N(Cc2ccccc2)Cc2ccccc2)o1`, the Ratio is reported as 288 in data set [2], 314 in data set [4], 31 in data set [5] and 379 in data set [6]. For the same molecule, the selectivity ratio in data set [3] is 1320. This molecule displayed an MIC in data set [1] of 0.12 µM (≈ 0.0473 µg/mL).
In turn, `C=CCN(CC=C)C(=S)N/N=C(/C)c1ccccc1` gave an MIC in data set [1] of 11.4 µM (≈ 3.13 µg/mL).
In data set [1], `C/C(=N/NC(=S)N(Cc1ccccc1)Cc1ccccc1)c1ccccc1` registered an MIC of 4.17 µM (≈ 1.56 µg/mL).
`C=CCN(CC=C)C(=S)N/N=C(/C)c1ccccc1O` had an MIC in data set [1] of 10.8 µM (≈ 3.13 µg/mL).
In turn, `C/C(=N/NC(=S)N(Cc1ccccc1)Cc1ccccc1)c1ccccc1O` yielded a minimum inhibitory concentration (MIC) in data set [1] of 8.03 µM (≈ 3.13 µg/mL).
`C=CCN(CC=C)C(=S)N/N=C(/C)c1ccc(O)cc1` displayed a minimal inhibitory concentration (MIC) in data set [1] of 10.8 µM (≈ 3.13 µg/mL).
On the same count and under the same terms, in the case of `C/C(=N/NC(=S)N(Cc1ccccc1)Cc1ccccc1)c1ccc(O)cc1` it was 8.03 µM (≈ 3.13 µg/mL); in that of `C/C(=N/NC(=S)N(Cc1ccccc1)Cc1ccccc1)c1ccc(N)cc1`, 8.04 µM (≈ 3.12 µg/mL); in that of `C=CCN(CC=C)C(=S)N/N=C(/C)c1ccc([N+](=O)[O-])cc1`, 9.83 µM (≈ 3.13 µg/mL).
In turn, `C/C(=N/NC(=S)N(Cc1ccccc1)Cc1ccccc1)c1ccc([N+](=O)[O-])cc1` registered an MIC in data set [1] of 1.86 µM (≈ 0.778 µg/mL).
Still for that read-out and setting: in the case of `C=CCN(CC=C)C(=S)N/N=C(/C)c1ccc(F)cc1` it was 5.35 µM (≈ 1.56 µg/mL); in that of `C/C(=N/NC(=S)N(Cc1ccccc1)Cc1ccccc1)c1ccc(F)cc1`, 3.98 µM (≈ 1.56 µg/mL); in that of `C=CCN(CC=C)C(=S)NN=C(c1ccccc1)c1ccccc1`, 2.32 µM (≈ 0.778 µg/mL).
On the same count and under the same terms, in the case of `S=C(N/N=C\c1ccccc1)N(Cc1ccccc1)Cc1ccccc1` it was 8.71 µM (≈ 3.13 µg/mL); in that of `C=CCN(CC=C)C(=S)N/N=C\c1ccccc1[N+](=O)[O-]`, 2.56 µM (≈ 0.779 µg/mL); in that of `O=[N+]([O-])c1ccccc1/C=N\NC(=S)N(Cc1ccccc1)Cc1ccccc1`, 0.98 µM (≈ 0.396 µg/mL).
In data set [1], `C=CCN(CC=C)C(=S)N/N=C\c1ccc([N+](=O)[O-])cc1` returned an MIC of 1.31 µM (≈ 0.399 µg/mL).
The same measure, in the same setting: to `CC[C@@H](CO)NCCN[C@@H](CC)CO` [ETHAMBUTOL] belongs 37.7 µM (≈ 7.7 µg/mL).
With `NNC(=O)c1ccncc1` [ISONIAZID], the minimal inhibitory concentration (MIC) in data set [1] came out at 45.6 µM (≈ 6.25 µg/mL).
Same read-out and setting: in the case of `CO[C@H]1/C=C/O[C@@]2(C)Oc3c(C)c(O)c4c(O)c(c(/C=N/N5CCN(C)CC5)c(O)c4c3C2=O)NC(=O)/C(C)=C\C=C\[C@H](C)[C@H](O)[C@@H](C)[C@@H](O)[C@@H](C)[C@H](OC(C)=O)[C@@H]1C` [RIFAMPIN] it was 3.79 µM (≈ 3.12 µg/mL).
